Results: PMC9532703, “A novel small molecule RK-019 inhibits FGFR2-amplification gastric cancer cell proliferation and induces apoptosis in vitro and in vivo” (Frontiers in Pharmacology, 2022)

Legend:
Test in all cases: Kinase selectivity panel
Assay type in all cases: biochemical
Settings in all cases: read-out: Inhibition(%) @ 1 µM RK-019
GRK6(h) = target: T1, GRK6(h) (Homo sapiens, UniProt P43250)
T1 construct: purchased Eurofins Discovery Services (KinaseProfiler)
In short: (§1)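 Compound screened at 1 µM against a panel of 422 recombinant human kinases using an in vitro ATP-site competition binding assay; values reported as inhibition ratio.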

TGFBR1(h) = target: T2, TGFBR1(h) (Homo sapiens, UniProt P36897)
T2 construct: purchased Eurofins Discovery Services (KinaseProfiler)
In short: as §1

Wee1(h) = target: T3, Wee1(h) (Homo sapiens, UniProt P30291)
T3 construct: purchased Eurofins Discovery Services (KinaseProfiler)
In short: as §1

PIP5K1g(h) = target: T4, PIP5K1g(h) (Homo sapiens, UniProt O60331)
T4 construct: purchased Eurofins Discovery Services (KinaseProfiler)
In short: as §1

LOK(h) = target: T5, LOK(h) (Homo sapiens, UniProt O94804)
T5 construct: purchased Eurofins Discovery Services (KinaseProfiler)
T5 sequence (O94804 whole entry): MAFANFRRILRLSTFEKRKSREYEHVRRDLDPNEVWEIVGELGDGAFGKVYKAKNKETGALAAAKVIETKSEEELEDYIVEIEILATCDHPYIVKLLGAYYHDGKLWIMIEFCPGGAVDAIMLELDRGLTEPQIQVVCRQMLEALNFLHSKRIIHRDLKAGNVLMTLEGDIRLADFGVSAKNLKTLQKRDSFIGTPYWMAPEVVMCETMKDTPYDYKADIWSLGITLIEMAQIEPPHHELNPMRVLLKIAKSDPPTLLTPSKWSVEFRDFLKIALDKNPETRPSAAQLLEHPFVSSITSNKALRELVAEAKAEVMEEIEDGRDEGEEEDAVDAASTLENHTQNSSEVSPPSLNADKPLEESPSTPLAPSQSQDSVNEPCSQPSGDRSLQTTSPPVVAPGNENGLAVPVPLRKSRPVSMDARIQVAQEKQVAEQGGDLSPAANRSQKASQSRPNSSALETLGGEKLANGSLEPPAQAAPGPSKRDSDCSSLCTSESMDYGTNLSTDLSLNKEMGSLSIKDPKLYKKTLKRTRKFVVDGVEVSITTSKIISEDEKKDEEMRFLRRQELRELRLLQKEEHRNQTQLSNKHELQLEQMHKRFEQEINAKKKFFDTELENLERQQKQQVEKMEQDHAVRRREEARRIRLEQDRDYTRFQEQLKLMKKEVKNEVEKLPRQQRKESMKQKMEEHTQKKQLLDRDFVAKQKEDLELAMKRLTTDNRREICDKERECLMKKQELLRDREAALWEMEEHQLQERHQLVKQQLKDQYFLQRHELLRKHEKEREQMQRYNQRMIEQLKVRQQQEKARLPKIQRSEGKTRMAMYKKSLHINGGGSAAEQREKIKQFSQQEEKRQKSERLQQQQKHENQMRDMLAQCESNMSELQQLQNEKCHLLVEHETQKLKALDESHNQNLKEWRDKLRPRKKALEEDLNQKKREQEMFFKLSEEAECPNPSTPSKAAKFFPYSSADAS
In short: as §1

Axl(h) = target: T6, Axl(h) (Homo sapiens, UniProt P30530)
T6 construct: purchased Eurofins Discovery Services (KinaseProfiler)
In short: as §1

CK2α2(h) = target: T7, CK2α2(h) (Homo sapiens, UniProt P19784)
T7 construct: purchased Eurofins Discovery Services (KinaseProfiler)
In short: as §1

EGFR(T790M)(h) = target: T8, EGFR(T790M)(h) (Homo sapiens, UniProt P00533, T790M)
T8 construct: purchased Eurofins Discovery Services (KinaseProfiler)
In short: as §1

BrSK1(h) = target: T9, BrSK1(h) (Homo sapiens, UniProt Q8TDC3)
T9 construct: purchased Eurofins Discovery Services (KinaseProfiler)
In short: as §1

PAK3(h) = target: T10, PAK3(h) (Homo sapiens, UniProt O75914)
T10 construct: purchased Eurofins Discovery Services (KinaseProfiler)
In short: as §1

ALK2(h) = target: T11, ALK2(h) (Homo sapiens, UniProt Q04771)
T11 construct: purchased Eurofins Discovery Services (KinaseProfiler)
T11 sequence (Q04771 21-509): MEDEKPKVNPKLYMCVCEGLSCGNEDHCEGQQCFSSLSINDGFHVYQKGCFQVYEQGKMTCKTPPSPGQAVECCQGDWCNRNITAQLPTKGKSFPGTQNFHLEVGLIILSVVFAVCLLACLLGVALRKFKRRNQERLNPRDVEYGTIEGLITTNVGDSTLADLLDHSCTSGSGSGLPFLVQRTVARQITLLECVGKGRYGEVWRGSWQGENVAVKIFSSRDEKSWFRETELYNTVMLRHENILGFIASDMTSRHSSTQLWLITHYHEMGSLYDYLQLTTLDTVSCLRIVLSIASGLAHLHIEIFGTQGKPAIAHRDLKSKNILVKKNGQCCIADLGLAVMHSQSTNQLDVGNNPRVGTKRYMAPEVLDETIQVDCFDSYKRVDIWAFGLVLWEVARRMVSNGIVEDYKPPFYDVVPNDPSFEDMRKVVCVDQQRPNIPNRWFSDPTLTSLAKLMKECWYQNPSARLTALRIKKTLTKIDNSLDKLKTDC
In short: as §1

Hck(h) = target: T12, Hck(h) (Homo sapiens, UniProt P08631)
T12 construct: purchased Eurofins Discovery Services (KinaseProfiler)
In short: as §1

Met(M1268T)(h) = target: T13, Met(M1268T)(h) (Homo sapiens, UniProt P08581, M1250T)
T13 construct: purchased Eurofins Discovery Services (KinaseProfiler)
In short: as §1

CaMKIIβ(h) = target: T14, CaMKIIβ(h) (Homo sapiens, UniProt Q13554)
T14 construct: purchased Eurofins Discovery Services (KinaseProfiler)
T14 sequence (Q13554 whole entry): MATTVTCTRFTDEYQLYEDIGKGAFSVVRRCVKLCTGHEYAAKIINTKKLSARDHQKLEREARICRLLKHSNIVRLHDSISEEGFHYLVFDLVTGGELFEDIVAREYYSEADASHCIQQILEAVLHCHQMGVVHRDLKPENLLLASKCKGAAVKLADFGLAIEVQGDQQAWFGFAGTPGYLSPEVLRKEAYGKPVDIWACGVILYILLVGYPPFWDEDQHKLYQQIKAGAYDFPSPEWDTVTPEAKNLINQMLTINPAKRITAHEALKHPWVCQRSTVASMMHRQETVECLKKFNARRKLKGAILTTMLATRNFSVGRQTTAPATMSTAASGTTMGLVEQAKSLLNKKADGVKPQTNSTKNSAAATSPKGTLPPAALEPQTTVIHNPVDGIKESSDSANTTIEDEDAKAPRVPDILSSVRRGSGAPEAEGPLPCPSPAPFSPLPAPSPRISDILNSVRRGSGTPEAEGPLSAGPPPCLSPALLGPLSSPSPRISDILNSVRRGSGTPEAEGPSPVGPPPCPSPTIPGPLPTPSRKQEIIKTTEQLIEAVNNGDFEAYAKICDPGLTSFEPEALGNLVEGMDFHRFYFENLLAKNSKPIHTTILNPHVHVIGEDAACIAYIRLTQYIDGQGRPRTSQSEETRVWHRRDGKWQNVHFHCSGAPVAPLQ
In short: as §1

ZAK(h) = target: T15, ZAK(h) (Homo sapiens, UniProt Q9NYL2)
T15 construct: purchased Eurofins Discovery Services (KinaseProfiler)
In short: as §1

CK2α1(h) = target: T16, CK2α1(h) (Homo sapiens, UniProt P68400)
T16 construct: purchased Eurofins Discovery Services (KinaseProfiler)
T16 sequence (P68400 whole entry): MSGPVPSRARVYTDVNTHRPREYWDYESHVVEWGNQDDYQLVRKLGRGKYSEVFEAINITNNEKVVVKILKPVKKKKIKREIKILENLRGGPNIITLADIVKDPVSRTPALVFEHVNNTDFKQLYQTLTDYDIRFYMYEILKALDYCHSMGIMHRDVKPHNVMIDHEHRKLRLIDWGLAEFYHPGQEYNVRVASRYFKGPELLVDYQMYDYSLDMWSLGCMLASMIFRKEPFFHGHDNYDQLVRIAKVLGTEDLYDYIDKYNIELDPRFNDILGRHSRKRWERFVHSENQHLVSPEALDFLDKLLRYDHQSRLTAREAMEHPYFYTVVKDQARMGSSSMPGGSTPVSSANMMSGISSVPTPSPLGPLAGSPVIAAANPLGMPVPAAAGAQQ
In short: as §1

Hck(h) activated = target: T17, Hck(h) activated (Homo sapiens, UniProt P08631)
T17 construct: purchased Eurofins Discovery Services (KinaseProfiler)
In short: as §1

PKCγ(h) = target: T18, PKCγ(h) (Homo sapiens, UniProt P05129)
T18 construct: purchased Eurofins Discovery Services (KinaseProfiler)
In short: as §1

CLK3(h) = target: T19, CLK3(h) (Homo sapiens, UniProt P49761)
T19 construct: purchased Eurofins Discovery Services (KinaseProfiler)
In short: as §1

PDGFRα(h) = target: T20, PDGFRα(h) (Homo sapiens, UniProt P16234)
T20 construct: purchased Eurofins Discovery Services (KinaseProfiler)
In short: as §1

HIPK3(h) = target: T21, HIPK3(h) (Homo sapiens, UniProt Q9H422)
T21 construct: purchased Eurofins Discovery Services (KinaseProfiler)
In short: as §1

[1] = target: T22, PI3 Kinase (p110d/p85a)(h) (Homo sapiens, UniProt O00329)
T22 construct: purchased Eurofins Discovery Services (KinaseProfiler)
In short: as §1

TSSK2(h) = target: T23, TSSK2(h) (Homo sapiens, UniProt Q96PF2)
T23 construct: purchased Eurofins Discovery Services (KinaseProfiler)
T23 sequence (Q96PF2 whole entry): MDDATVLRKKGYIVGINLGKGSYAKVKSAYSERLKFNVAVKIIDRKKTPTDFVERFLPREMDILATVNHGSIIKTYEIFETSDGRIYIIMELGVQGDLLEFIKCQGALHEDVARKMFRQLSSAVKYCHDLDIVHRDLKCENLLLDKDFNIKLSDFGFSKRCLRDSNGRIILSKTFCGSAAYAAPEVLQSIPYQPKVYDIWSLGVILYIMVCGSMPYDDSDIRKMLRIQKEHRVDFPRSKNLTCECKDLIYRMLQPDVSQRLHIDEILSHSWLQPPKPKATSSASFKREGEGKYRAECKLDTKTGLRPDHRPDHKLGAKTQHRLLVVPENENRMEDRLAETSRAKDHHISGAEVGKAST
In short: as §1

CDK18/cyclinY(h) = target: T24, CDK18/cyclinY(h) (Homo sapiens, UniProt Q07002)
T24 construct: purchased Eurofins Discovery Services (KinaseProfiler)
In short: as §1

RIPK1(h) = target: T25, RIPK1(h) (Homo sapiens, UniProt Q13546)
T25 construct: purchased Eurofins Discovery Services (KinaseProfiler)
In short: as §1

Syk(h) = target: T26, Syk(h) (Homo sapiens, UniProt P43405)
T26 construct: purchased Eurofins Discovery Services (KinaseProfiler)
In short: as §1

Tie2 (h) = target: T27, Tie2 (h) (Homo sapiens, UniProt Q02763)
T27 construct: purchased Eurofins Discovery Services (KinaseProfiler)
In short: as §1

EGFR(L858R)(h) = target: T28, EGFR(L858R)(h) (Homo sapiens, UniProt P00533, L858R)
T28 construct: purchased Eurofins Discovery Services (KinaseProfiler)
In short: as §1

DDR1(h) = target: T29, DDR1(h) (Homo sapiens, UniProt Q08345)
T29 construct: purchased Eurofins Discovery Services (KinaseProfiler)
T29 sequence (Q08345 19-913): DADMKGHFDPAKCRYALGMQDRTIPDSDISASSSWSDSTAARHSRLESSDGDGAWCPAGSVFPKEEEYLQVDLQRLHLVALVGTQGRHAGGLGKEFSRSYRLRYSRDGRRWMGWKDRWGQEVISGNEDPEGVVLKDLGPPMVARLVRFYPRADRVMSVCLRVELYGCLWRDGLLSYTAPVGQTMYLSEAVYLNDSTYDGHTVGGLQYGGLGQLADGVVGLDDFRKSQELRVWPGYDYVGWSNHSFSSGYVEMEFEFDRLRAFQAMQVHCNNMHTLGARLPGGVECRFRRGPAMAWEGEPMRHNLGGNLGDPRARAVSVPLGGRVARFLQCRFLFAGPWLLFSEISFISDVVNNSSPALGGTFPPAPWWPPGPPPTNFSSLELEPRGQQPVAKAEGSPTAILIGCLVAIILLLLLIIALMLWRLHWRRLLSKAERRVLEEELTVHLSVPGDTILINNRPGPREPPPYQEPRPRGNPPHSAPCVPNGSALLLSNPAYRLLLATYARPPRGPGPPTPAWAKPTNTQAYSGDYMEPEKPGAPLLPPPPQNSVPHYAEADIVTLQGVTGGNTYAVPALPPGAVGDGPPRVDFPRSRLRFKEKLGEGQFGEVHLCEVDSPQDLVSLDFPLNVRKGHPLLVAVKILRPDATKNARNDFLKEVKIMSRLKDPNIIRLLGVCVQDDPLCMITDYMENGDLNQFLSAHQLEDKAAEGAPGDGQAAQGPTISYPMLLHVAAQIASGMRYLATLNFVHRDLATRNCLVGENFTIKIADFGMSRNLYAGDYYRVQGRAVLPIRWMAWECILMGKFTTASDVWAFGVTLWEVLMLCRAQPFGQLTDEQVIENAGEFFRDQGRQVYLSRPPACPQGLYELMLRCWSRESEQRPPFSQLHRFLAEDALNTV
In short: as §1

PKBβ(h) = target: T30, PKBβ(h) (Homo sapiens, UniProt P31751)
T30 construct: purchased Eurofins Discovery Services (KinaseProfiler)
In short: as §1

LRRK2(h) = target: T31, LRRK2(h) (Homo sapiens, UniProt Q5S007)
T31 construct: purchased Eurofins Discovery Services (KinaseProfiler)
In short: as §1

MST2(h) = target: T32, MST2(h) (Homo sapiens, UniProt Q13188)
T32 construct: purchased Eurofins Discovery Services (KinaseProfiler)
T32 sequence (Q13188 whole entry): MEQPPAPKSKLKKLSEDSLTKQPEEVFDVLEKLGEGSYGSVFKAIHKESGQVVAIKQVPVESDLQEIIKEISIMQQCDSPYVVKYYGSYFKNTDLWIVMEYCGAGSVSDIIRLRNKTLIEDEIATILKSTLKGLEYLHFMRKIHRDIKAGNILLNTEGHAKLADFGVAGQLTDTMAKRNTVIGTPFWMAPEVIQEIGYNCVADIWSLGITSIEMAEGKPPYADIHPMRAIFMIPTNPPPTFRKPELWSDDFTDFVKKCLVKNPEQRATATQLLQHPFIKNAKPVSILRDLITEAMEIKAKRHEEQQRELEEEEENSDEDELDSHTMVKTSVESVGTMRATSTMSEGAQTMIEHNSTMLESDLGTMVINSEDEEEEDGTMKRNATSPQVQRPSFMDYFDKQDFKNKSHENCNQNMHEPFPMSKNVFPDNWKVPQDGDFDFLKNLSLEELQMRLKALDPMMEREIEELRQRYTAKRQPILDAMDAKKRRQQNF
In short: as §1

PKCι(h) = target: T33, PKCι(h) (Homo sapiens, UniProt P41743)
T33 construct: purchased Eurofins Discovery Services (KinaseProfiler)
In short: as §1

MAPK2(m) = target: T34, MAPK2(m) (Mus musculus, UniProt P63085)
T34 construct: purchased Eurofins Discovery Services (KinaseProfiler)

PAK1(h) = target: T35, PAK1(h) (Homo sapiens, UniProt Q13153)
T35 construct: purchased Eurofins Discovery Services (KinaseProfiler)
T35 sequence (Q13153 whole entry): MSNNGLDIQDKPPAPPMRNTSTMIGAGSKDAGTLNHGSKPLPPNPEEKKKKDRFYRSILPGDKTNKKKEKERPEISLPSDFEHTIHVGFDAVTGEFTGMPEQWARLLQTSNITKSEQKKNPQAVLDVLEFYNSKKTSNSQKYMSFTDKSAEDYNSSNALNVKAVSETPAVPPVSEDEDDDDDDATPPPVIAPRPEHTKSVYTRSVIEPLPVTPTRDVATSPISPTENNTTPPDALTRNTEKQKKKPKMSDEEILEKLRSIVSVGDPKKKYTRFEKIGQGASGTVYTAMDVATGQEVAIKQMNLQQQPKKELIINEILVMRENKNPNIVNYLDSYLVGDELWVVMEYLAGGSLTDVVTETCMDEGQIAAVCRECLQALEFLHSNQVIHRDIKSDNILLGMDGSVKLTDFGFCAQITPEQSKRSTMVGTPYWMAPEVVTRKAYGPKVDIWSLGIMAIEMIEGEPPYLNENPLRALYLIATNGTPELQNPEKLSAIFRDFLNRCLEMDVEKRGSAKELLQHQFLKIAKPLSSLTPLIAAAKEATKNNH
In short: as §1

RIPK2(h) = target: T36, RIPK2(h) (Homo sapiens, UniProt O43353)
T36 construct: purchased Eurofins Discovery Services (KinaseProfiler)
In short: as §1

PRP4(h) = target: T37, PRP4(h) (Homo sapiens, UniProt Q13523)
T37 construct: purchased Eurofins Discovery Services (KinaseProfiler)
In short: as §1

Structure (SMILES): COc1cc(OC)cc(N(CCN[C@H](C)CO)c2ccc3ncc(-c4cnn(C)c4)c(=O)n3c2)c1 [RK-019, (R)-7-((3,5-dimethoxyphenyl) (2-((1-hydroxypropan-2-yl)amino)ethyl)amino)-3-(1-methyl-1H-pyrazol-4-yl)-4H-pyrido [1,2-a]pyrimidin-4-one]
- activity at 1 µM (GRK6(h)): 114%
- activity at 1 µM (TGFBR1(h)): 83%
- activity at 1 µM (Wee1(h)): 92%
- activity at 1 µM (PIP5K1g(h)): 97%
- activity at 1 µM (LOK(h)): 76%
- activity at 1 µM (Axl(h)): 116%
- activity at 1 µM (CK2α2(h)): 105%
- activity at 1 µM (EGFR(T790M)(h)): 90%
- activity at 1 µM (BrSK1(h)): 106%
- activity at 1 µM (PAK3(h)): 97%
- activity at 1 µM (ALK2(h)): 90%
- activity at 1 µM (Hck(h)): 27%
- activity at 1 µM (Met(M1268T)(h)): 71%
- activity at 1 µM (CaMKIIβ(h)): 80%
- activity at 1 µM (ZAK(h)): 80%
- activity at 1 µM (CK2α1(h)): 95%
- activity at 1 µM (Hck(h) activated): 60%
- activity at 1 µM (PKCγ(h)): 92%
- activity at 1 µM (CLK3(h)): 102%
- activity at 1 µM (PDGFRα(h)): 50%
- activity at 1 µM (HIPK3(h)): 94%
- activity at 1 µM [1]: 93%
- activity at 1 µM (TSSK2(h)): 91%
- activity at 1 µM (CDK18/cyclinY(h)): 96%
- activity at 1 µM (RIPK1(h)): 85%
- activity at 1 µM (Syk(h)): 116%
- activity at 1 µM (Tie2 (h)): 105%
- activity at 1 µM (EGFR(L858R)(h)): 114%
- activity at 1 µM (DDR1(h)): 19%
- activity at 1 µM (PKBβ(h)): 84%
- activity at 1 µM (LRRK2(h)): 80%
- activity at 1 µM (MST2(h)): 97%
- activity at 1 µM (PKCι(h)): 100%
- activity at 1 µM (MAPK2(m)): 109%
- activity at 1 µM (PAK1(h)): 102%
- activity at 1 µM (RIPK2(h)): 46%
- activity at 1 µM (PRP4(h)): 90%
